From patent US7875647B2, “Heteroaryl-pyrazole derivatives as cannabinoid CB1 receptor antagonists” (Green Cross Corporation, priority 2006, dated 2011)
Read-outs that look alike come from different tables or passages of the source.

Target: T1, Cannabinoid-1 receptor (CB1R) (Rattus norvegicus, UniProt P20272)
T1 construct: The tissue obtained from the brain of SD rats was homogenized; from tissue; host or cells: brain of SD rats (membrane pellet of the homogenate)
Assay: Cannabinoid-1 receptor (CB1R) binding affinity assay ([3H]CP-55940, rat CB-1 receptor binding protocol)
Conditions: brain tissue of SD rats, [3H]CP-55940, 30° C. 60 min

T1 sequence (P20272 whole entry): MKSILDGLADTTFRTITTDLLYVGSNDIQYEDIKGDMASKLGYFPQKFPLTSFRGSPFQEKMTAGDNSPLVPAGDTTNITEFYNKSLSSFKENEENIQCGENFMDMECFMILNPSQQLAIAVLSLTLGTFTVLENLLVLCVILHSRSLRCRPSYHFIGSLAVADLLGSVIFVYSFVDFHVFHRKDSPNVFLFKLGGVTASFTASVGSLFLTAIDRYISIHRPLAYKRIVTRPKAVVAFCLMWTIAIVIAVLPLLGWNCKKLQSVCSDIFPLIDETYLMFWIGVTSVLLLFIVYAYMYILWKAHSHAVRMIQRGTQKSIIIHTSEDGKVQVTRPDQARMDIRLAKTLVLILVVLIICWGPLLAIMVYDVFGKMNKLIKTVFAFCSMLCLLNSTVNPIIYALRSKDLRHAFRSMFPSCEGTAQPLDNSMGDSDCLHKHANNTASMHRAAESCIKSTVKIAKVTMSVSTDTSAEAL

Structure (SMILES) | IC50 (read-out: IC50) [nM] | IC50 (IC50(nM)) [nM]
COC(=O)NC(C)c1c(-c2nnc(C(C)(C)C)s2)nn(-c2ccc(Cl)cc2Cl)c1-c1ccc(Br)cc1 (stereo not shown) [Example 532, Methyl 1-(5-(4-bromophenyl)-3-(5-tert-butyl-1,3,4-thiadiazol-2-yl)-1-(2,4-dichlorophenyl)-1H-pyrazol-4-yl)ethylcarbamate] | – | 8.75
Clc1ccc(-c2c(Br)c(-c3nnc(C4CCC4)s3)nn2-c2ccc(Cl)cc2Cl)cc1 [Example 543, 2-(4-bromo-5-(4-chlorophenyl)-1-(2,4-dichlorophenyl)-1H-pyrazol-3-yl)-5-cyclobutyl-1,3,4-thiadiazole] | 70.3 | –
Clc1ccc(-c2c(Br)c(-c3nnc(C4CCCCC4)s3)nn2-c2ccc(Cl)cc2Cl)cc1 [Example 544, 2-(4-bromo-5-(4-chlorophenyl)-1-(2,4-dichlorophenyl)-1H-pyrazol-3-yl)-5-cyclohexyl-1,3,4-thiadiazole] | 91.2 | –
Clc1ccc(-c2c(Br)c(-c3nnc(C4(c5ccc(Cl)cc5)CC4)s3)nn2-c2ccc(Cl)cc2Cl)cc1 [Example 547, 2-(4-bromo-5-(4-chlorophenyl)-1-(2,4-dichlorophenyl)-1H-pyrazol-3-yl)-5-(1-(4-chlorophenyl)cyclopropyl)-1,3,4-thiadiazole] | 12.9 | –
CCCn1nnnc1-c1nn(-c2ccc(Cl)cc2Cl)c(-c2ccc(Cl)cc2)c1C [Example 565, 5-(5-(4-Chlorophenyl)-1-(2,4-dichlorophenyl)-4-methyl-1H-pyrazol-3-yl)-1-propyl-1H-tetrazole] | 68.9 | –
CCCn1nnc(-c2nn(-c3ccc(Cl)cc3Cl)c(-c3ccc(Cl)cc3)c2C)n1 [Example 566, 5-(5-(4-Chlorophenyl)-1-(2,4-dichlorophenyl)-4-methyl-1H-pyrazol-3-yl)-2-propyl-2H-tetrazole] | 62.1 | –
CCn1nnnc1-c1nn(-c2ccc(Cl)cc2Cl)c(-c2ccc(Cl)cc2)c1C [Example 569, 5-(5-(4-Chlorophenyl)-1-(2,4-dichlorophenyl)-4-methyl-1H-pyrazol-3-yl)-1-ethyl-1H-tetrazole] | 202 | –
CCCCCn1nnnc1-c1nn(-c2ccc(Cl)cc2Cl)c(-c2ccc(Cl)cc2)c1C [Example 573, 5-(5-(4-Chlorophenyl)-1-(2,4-dichlorophenyl)-4-methyl-1H-pyrazol-3-yl)-1-pentyl-1H-tetrazole] | 184 | –
CCCCCn1nnc(-c2nn(-c3ccc(Cl)cc3Cl)c(-c3ccc(Cl)cc3)c2C)n1 [Example 574, 5-(5-(4-Chlorophenyl)-1-(2,4-dichlorophenyl)-4-methyl-1H-pyrazol-3-yl)-2-pentyl-2H-tetrazole] | 122 | –
Cc1c(-c2nnnn2C(C)C)nn(-c2ccc(Cl)cc2Cl)c1-c1ccc(Cl)cc1 [Example 575, 5-(5-(4-Chlorophenyl)-1-(2,4-dichlorophenyl)-4-methyl-1H-pyrazol-3-yl)-1-isopropyl-1H-tetrazole] | 166 | –
Cc1c(-c2nnn(C(C)C)n2)nn(-c2ccc(Cl)cc2Cl)c1-c1ccc(Cl)cc1 [Example 576, 5-(5-(4-Chlorophenyl)-1-(2,4-dichlorophenyl)-4-methyl-1H-pyrazol-3-yl)-2-isopropyl-2H-tetrazole] | 101 | –
Cc1c(-c2nnnn2C2CCCC2)nn(-c2ccc(Cl)cc2Cl)c1-c1ccc(Cl)cc1 [Example 577, 5-(5-(4-Chlorophenyl)-1-(2,4-dichlorophenyl)-4-methyl-1H-pyrazol-3-yl)-1-cyclopentyl-1H-tetrazole] | 26.5 | –
Cc1c(-c2nnn(C3CCCC3)n2)nn(-c2ccc(Cl)cc2Cl)c1-c1ccc(Cl)cc1 [Example 578, 5-(5-(4-Chlorophenyl)-1-(2,4-dichlorophenyl)-4-methyl-1H-pyrazol-3-yl)-2-cyclopentyl-2H-tetrazole] | 67.9 | –

Continued, in another order:

IC50 (read-out: IC50) [nM] | Structure (SMILES) | IC50 (IC50(nM)) [nM]
20.6 | C=Cc1c(-c2nnc(C(C)(C)C)s2)nn(-c2ccc(Cl)cc2Cl)c1-c1ccc(Br)cc1 [Example 531, 2-(5-(4-bromophenyl)-1-(2,4-dichlorophenyl)-4-vinyl-1H-pyrazol-3-yl)-5-tert-butyl-1,3,4-thiadiazole] | –
6.03 | CC(=O)c1c(-c2nnc(C(C)(C)C)s2)nn(-c2ccc(Cl)cc2Cl)c1-c1ccc(Br)cc1 [Example 533, 1-(5-(4-bromophenyl)-3-(5-tert-butyl-1,3,4-thiadiazol-2-yl)-1-(2,4-dichlorophenyl)-1H-pyrazol-4-yl)ethanone] | –
12 | C=C(C)c1c(-c2nnc(C(C)(C)C)s2)nn(-c2ccc(Cl)cc2Cl)c1-c1ccc(Br)cc1 [Example 535, 2-(5-(4-bromophenyl)-1-(2,4-dichlorophenyl)-4-(prop-1-en-2-yl)-1H-pyrazol-3-yl)-5-tert-butyl-1,3,4-thiadiazole] | –
199 | Clc1ccc(-c2c(Cl)c(-c3nnc(C4CCC4)s3)nn2-c2ccc(Cl)cc2Cl)cc1 [Example 536, 2-(4-chloro-5-(4-chlorophenyl)-1-(2,4-dichlorophenyl)-1H-pyrazol-3-yl)-5-cyclobutyl-1,3,4-thiadiazole] | –
127 | CCC(C)(C)c1nnc(-c2nn(-c3ccc(Cl)cc3Cl)c(-c3ccc(Cl)cc3)c2Cl)s1 [Example 537, 2-(4-chloro-5-(4-chlorophenyl)-1-(2,4-dichlorophenyl)-1H-pyrazol-3-yl)-5-tert-pentyl-1,3,4-thiadiazole] | –
653 | Clc1ccc(-c2c(Cl)c(-c3nnc(C4CCCCC4)s3)nn2-c2ccc(Cl)cc2Cl)cc1 [Example 538, 2-(4-chloro-5-(4-chlorophenyl)-1-(2,4-dichlorophenyl)-1H-pyrazol-3-yl)-5-cyclohexyl-1,3,4-thiadiazole] | –
102 | CCC(C)c1nnc(-c2nn(-c3ccc(Cl)cc3Cl)c(-c3ccc(Cl)cc3)c2Cl)s1 (stereo not shown) [Example 539, 2-sec-butyl-5-(4-chloro-5-(4-chlorophenyl)-1-(2,4-dichlorophenyl)-1H-pyrazol-3-yl)-1,3,4-thiadiazole] | –
98.1 | CC(C)(C)c1nnc(-c2nn(-c3ccc(Cl)cc3Cl)c(-c3ccc(Cl)cc3)c2Cl)s1 [Example 540, 2-tert-butyl-5-(4-chloro-5-(4-chlorophenyl)-1-(2,4-dichlorophenyl)-1H-pyrazol-3-yl)-1,3,4-thiadiazole] | –
23.1 | CC(C)(C)c1nnc(-c2nn(-c3ccc(Cl)cc3Cl)c(-c3ccc(Cl)cc3)c2Br)s1 [Example 541, 2-(4-bromo-5-(4-chlorophenyl)-1-(2,4-dichlorophenyl)-1H-pyrazol-3-yl)-5-tert-butyl-1,3,4-thiadiazole] | –
51.9 | CCC(C)c1nnc(-c2nn(-c3ccc(Cl)cc3Cl)c(-c3ccc(Cl)cc3)c2Br)s1 (stereo not shown) [Example 542, 2-(4-bromo-5-(4-chlorophenyl)-1-(2,4-dichlorophenyl)-1H-pyrazol-3-yl)-5-sec-butyl-1,3,4-thiadiazole] | –
23.3 | CCC(C)(C)c1nnc(-c2nn(-c3ccc(Cl)cc3Cl)c(-c3ccc(Cl)cc3)c2Br)s1 [Example 545, 2-(4-bromo-5-(4-chlorophenyl)-1-(2,4-dichlorophenyl)-1H-pyrazol-3-yl)-5-tert-pentyl-1,3,4-thiadiazole] | –
29.5 | CC(C)(c1ccc(Cl)cc1)c1nnc(-c2nn(-c3ccc(Cl)cc3Cl)c(-c3ccc(Cl)cc3)c2Br)s1 [Example 546, 2-(4-bromo-5-(4-chlorophenyl)-1-(2,4-dichlorophenyl)-1H-pyrazol-3-yl)-5-(2-(4-chlorophenyl)propan-2-yl)-1,3,4-thiadiazole] | –
